The results in this text go back to patent US20030158245A1, “Fused heterocyclic derivatives, their production and use” (priority 2000, published 2003).

One series concerns Chondromodulin-I (ChM-I) mRNA. The experiment in a line: Assay of Chondromodulin-I (ChM-I) mRNA by RT-PCR in ATDC5 cells. The note with it: 10^−6 M test compound; ATDC5 cells cultured 7 days; density of ChM-I band determined by bioimaging; no test compound added = 0. It is filed as cell-based, mouse. The protocol: Assay of Chondromodulin-I (ChM-I) mRNA:
ATDC5, a substrain derived from mouse teratocarcinoma cell line AT805, was used. ATDC5 cells were cultured at 37° C. for 7 days in the presence of the test compound using a 1:1 mixed medium of Dulbecco's modified Eagle's medium/Ham's F-12 medium containing 5% heat-inactivated fetal bovine serum and 20 μg/ml gentamycin under a condition of 5% carbon dioxide and 95% air. After the cultivation was completed, cells were collected, from which RNA was recovered by using an RNeasy mini kit (manufactured by Quiagen Company), followed by DNAase treatment using MessageClean Kit (manufactured by Genhunter Company) to obtain the total RNA. The amount of ChM-I mRNA in the total RNA was determined by the RT-PCR method. First, cDNA was synthesized from the RNA preparation by reverse transcription reaction using TaKaRa PCR Kit (AMV) ver. 2.1 and random 9-mers (manufactured by Takara Shuzo Co., Ltd.) according to the instruction for the kit. Next, ChM-I gene was amplified specifically by using HotStarTaq DNA polymerase (manufactured by Quiagen company). The following primers were used for the amplification of ChM-I gene: […]
The amplification reaction was carried out in a GeneAmp PCR System 2400 (manufactured by Perkin Elmer Inc.) after warming at 95° C. for 15 minutes, which was followed by 32 repeating reaction cycles of 95° C. for 20 seconds, 58° C. for 10 seconds and 72° C. for 30 seconds. The thus-obtained PCR product was separated by electrophoresis on 2% agarose gel containing ethidium bromide, and the fluorescence intensity of the DNA fragment, which appeared by ultraviolet irradiation at the location corresponding the size (212 bp) expected from the base sequence of mouse ChM-I, was determined. The activity of the test compound to enhance ChM-I expression is expressed as the density of ChM-I band as determined by bioimaging (Table 49). […]
For `CCCS(=O)(=O)c1sc(C(N)=O)c2c1-c1c(cnn1C)CC2` [Example 70, 4,5-Dihydro-1-methyl-8-n-propylsulfonyl-1H-thieno[3,4-g]indazole-6-carboxamide], the ChM-I expression-enhancing activity is reported as 47. `CC(=O)c1sc(Oc2ccc3c(c2)OCO3)c2c1CCc1cnn(C)c1-2` [Example 251, 1-[4,5-Dihydro-8-(3,4-methylenedioxyphenoxy)-1-methyl-1H-thieno[3,4-g]indazol-6-yl]-1-ethanone]: the ChM-I expression-enhancing activity stood at 87. Regarding `CCNC(=O)c1sc(Oc2ccc3c(c2)OCO3)c2c1CCc1cnn(C)c1-2` [Example 255, N-ethyl-4,5-dihydro-8-(3,4-methylenedioxyphenoxy)-1-methyl-1H-thieno[3,4-g]indazole-6-carboxamide], the ChM-I expression-enhancing activity is 106.

The next series deals with interstitial cells prepared from the bone marrow of the femur of normal rats. Nature of the series: Action to promote osteogenesis: alkaline phosphatase activity in bone marrow interstitial cells. The settings on record: rat bone marrow interstitial cells, compound added from day 2 for 5 days; mean ± S.E. (n = 4); all **p<0.01 vs. control. It is filed as cell-based, Sprague-Dawley rats. Also on record: dose or concentration left out as unconfirmed. The protocol:
Action to Promote Osteogenesis:
The action was determined in interstitial cells prepared from the bone marrow of the femur of normal rats by using alkaline phosphatase activity as the measure for osteogenesis. In other words, interstitial cells were prepared from the bone marrow of the femur of 7-week old male Sprague-Dawley rats according to the method of Maniatopoulos et al. [Cell Tissue Research, vol. 254, p. 317 (1988)], and cultivated in α-MEM (minimum essential medium) containing dexamethasone (10^−7 M) and β-glycerophosphoric acid (10^−2 M) to facilitate formation of the calcified osteoid tissue. After one week, the primary culture cells that reached the confluence were recovered by treating with a solution containing 0.25% trypsin and 0.2% EDTA and were subcultured in culture plates at a cell density of […] (day 0 of the cultivation). […] After the cells were washed with a phosphate buffer solution, 0.2% Nonidet P-40 was added to the cells, which were homogenized and centrifuged at 3000 rpm for 10 minutes, and the supernatant was subjected to the determination of alkaline phosphatase activity according to the method of Lowry et al. [Journal of Biological Chemistry, vol. 207, p. 19 (1954)]. Student's t-test was used for the statistical treatment.
For `CCCS(=O)(=O)c1sc(C(N)=O)c2c1-c1c(cnn1C)CC2` [Example 70, 4,5-Dihydro-1-methyl-8-n-propylsulfonyl-1H-thieno[3,4-g]indazole-6-carboxamide], the “Alkaline phosphatase activity (A405)” value is recorded as 0.25 ± 0.02**. Still for that read-out and setting: to `CC(=O)c1sc(Oc2ccc3c(c2)OCO3)c2c1CCc1cnn(C)c1-2` [Example 251, 1-[4,5-Dihydro-8-(3,4-methylenedioxyphenoxy)-1-methyl-1H-thieno[3,4-g]indazol-6-yl]-1-ethanone] belongs 1.33 ± 0.13**. On to `CCNC(=O)c1sc(Oc2ccc3c(c2)OCO3)c2c1CCc1cnn(C)c1-2` [Example 255, N-ethyl-4,5-dihydro-8-(3,4-methylenedioxyphenoxy)-1-methyl-1H-thieno[3,4-g]indazole-6-carboxamide], for which the “Alkaline phosphatase activity (A405)” value is 1.82 ± 0.06**.

Tested on in a further series: not given
Assay: not given
Conditions: not given
Turning to `NC(=O)c1sc(Nc2ccccc2)c2c1CCc1cn[nH]c1-2` [Example 29, 4,5-Dihydro-8-phenylamino-1H-thieno[3,4-g]indazole-6-carboxamide], the melting point is 233 to 234 °C. The same measure, in the same setting: next, `COc1sc(C(N)=O)c2c1-c1c(cnn1C)CC2` [Example 279]: 154 to 156 °C. Same read-out and setting: next, `Cn1ncc2c1-c1c(csc1S(C)(=O)=O)CC2` [Example 490, 1-Methyl-8-methylsulfonyl-4,5-dihydro-1H-thieno[3,4-g]indazole]: 192 to 193 °C; `CCOC(=O)c1sc(C)c2c1CCc1cnn(CC(F)(F)F)c1-2` [Example 127, 4,5-Dihydro-8-methyl-1-(2,2,2-trifluoroethyl)-1H-thieno[3,4-g]indazole-6-carboxylic Acid Ethyl Ester]: 120 to 121 °C. Still for that read-out and setting: next, `CC(C)(C)OC(=O)c1sc(Nc2ccccc2)c2c1CCc1cnoc1-2` [Example 4, 4,5-Dihydro-8-phenylaminothieno[3,4-g]-1,2-benzisoxazole-6-carboxylic Acid t-butyl Ester]: 148 to 149 °C; `Cn1ncc2c1-c1c(Nc3ccccc3)sc(C(N)=O)c1CC2` [Example 28, 4,5-Dihydro-1-methyl-8-phenylamino-1H-thieno[3,4-g]indazole-6-carboxamide]: 140 to 141 °C; `Cn1cc2c(n1)-c1c(N(C(=O)OCc3ccccc3)c3ccccc3)sc(C(N)=O)c1CC2` [Example 22, 8-[(N-Benzyloxycarbonyl-N-phenyl)amino]-4,5-dihydro-2-methyl-2H-thieno[3,4-g]indazole-6-carboxamide]: 220 to 221 °C.

Consider `CCOC(=O)c1sc(C)c2c1CCc1cnn(C)c1-2` [Example 73, 4,5-Dihydro-1,8-dimethyl-1H-thieno[3,4-g]indazole-6-carboxylic Acid Ethyl Ester], for which the melting point lay within 118 to 119 °C. The same measure, in the same setting: next, `CC(C)(C)OC(=O)c1sc(Nc2ccc(Cl)cc2)c2c1CCc1cnoc1-2` [Example 3, 8-(4-Chlorophenylamino)-4,5-dihydrothieno[3,4-g]-1,2-benzisoxazole-6-carboxylic Acid t-butyl Ester]: 197 to 198 °C; `NC(=O)c1sc(Nc2ccc(Cl)cc2)c2c1CCc1cnoc1-2` [Example 19, 8-(4-Chlorophenylamino)-4,5-dihydrothieno[3,4-g]-1,2-benzisoxazole-6-carboxamide]: 224 to 225 °C. Still for that read-out and setting: next, `CCCCc1sc(C(=O)OCC)c2c1-c1c(cnn1C)CC2` [Example 78, 8-n-Butyl-4,5-dihydro-1-methyl-1H-thieno[3,4-g]indazole-6-carboxylic Acid Ethyl Ester]: 80 to 81 °C; `CCOC(=O)c1sc(C)c2c1CCc1cnn(Cc3ccccc3)c1-2` [Example 128, 1-Benzyl-4,5-dihydro-8-methyl-1H-thieno[3,4-g]indazole-6-carboxylic Acid Ethyl Ester]: 131 to 132 °C.

`COc1sc(C(=O)O)c2c1-c1c(cnn1C)CC2` [Example 271]: the melting point is 250 to 252 °C. The same measure, in the same setting: next, `CN(C(=O)c1ccccc1)c1sc(C(N)=O)c2c1-c1oncc1CC2` [Example 18, 8-[(N-Benzoyl-N-methyl)amino]-4,5-dihydrothieno[3,4-g]-1,2-benzisoxazole-6-carboxamide]: 197 to 198 °C; `NC(=O)c1sc(N(C(=O)OCc2ccccc2)c2ccccc2)c2c1CCc1c[nH]nc1-2` [Example 21, 8-[(N-Benzyloxycarbonyl-N-phenyl)amino]-4,5-dihydro-1H-thieno[3,4-g]indazole-6-carboxamide]: 240 to 241 °C. Still for that read-out and setting: to `O=C(O)c1sc(N(C(=O)OCc2ccccc2)c2ccccc2)c2c1CCc1c[nH]nc1-2` [Example 14, 8-[(N-Benzyloxycarbonyl-N-phenyl)amino]-4,5-dihydro-1H-thieno[3,4-g]indazole-6-carboxylic Acid] belongs 278 to 279 °C; to `CN(C(=O)c1ccccc1)c1sc(C(=O)O)c2c1-c1oncc1CC2` [Example 11, 8-[(N-Benzoyl-N-methyl)amino]-4,5-dihydrothieno[3,4-g]-1,2-benzisoxazole-6-carboxylic Acid], 232 to 233 °C (dec.). The same measure, in the same setting: next, `O=C(O)c1sc(Nc2ccc(Cl)cc2)c2c1CCc1cnoc1-2` [Example 12, 8-(4-Chlorophenylamino)-4,5-dihydrothieno[3,4-g]-1,2-benzisoxazole-6-carboxylic Acid]: 232 to 233 °C (dec.); `CCOC(=O)c1sc(OC)c2c1CCc1cnn(C)c1-2` [Example 263]: 82 to 84 °C. Regarding `CC(C)OP(=O)(/C=C/c1ccc(Oc2sc(C(N)=O)c3c2-c2nn(C)cc2CC3)cc1)OC(C)C` [Example 380, 8-{4-((E)-2-diisopropoxyphosphorylvinyl)phenoxy}-4,5-dihydro-2-methyl-2H-thieno[3,4-g]indazole-6-carboxamide], the melting point was 216 to 217 °C. Still for that read-out and setting: next, `Cn1cc2c(n1)-c1c(Oc3ccc(C=O)cc3)sc(C(N)=O)c1CC2` [Example 380, 8-(4-Formylphenoxy)-4,5-dihydro-2-methyl-2H-thieno[3,4-g]indazole-6-carboxamide]: 210 to 211 °C; `CNC(=O)c1sc(Nc2ccccc2)c2c1CCc1cnoc1-2` [Example 33, N-Methyl-4,5-dihydro-8-(phenylamino)thieno[3,4-g]-1,2-benzisoxazole-6-carboxamide]: 193 to 194 °C. Same read-out and setting: next, `O=C(O)c1sc(Nc2ccccc2)c2c1CCc1cnoc1-2` [Example 13, 4,5-Dihydro-8-phenylaminothieno[3,4-g]-1,2-benzisoxazole-6-carboxylic Acid]: 211 to 212 °C (dec.); `CCOC(=O)N1C2=C(CCc3csc(Oc4ccccc4)c32)CN1C` [Example 143, 4,5-dihydro-2-methyl-8-phenoxy-2H-thieno[3,4-g]indazole-1-carboxylic Acid Ethyl Ester]: 89 to 90 °C.

By melting point is commonly meant the temperature of the solid-liquid transition.
